Results as given in patent publication US20240382471A1, “GLUCAGON-LIKE PEPTIDE-1 RECEPTOR MODULATORS AND USES THEREOF” (HEPAGENE THERAPEUTICS (HK) LIMITED, priority 2021, published 2024).

target: GLP1R (Homo sapiens, UniProt P43220); test: GLP1R cAMP assay (HTRF cAMP detection, agonist activity); format: cell-based; design: host or cells: Flp-In-293; details: Flp-In-293-GLP1R cells, 30 min at 37° C., read-out: EC50 (nM) Assay 1
Procedure: GLP1R-mediated agonist activity was determined with a cell-based functional assay utilizing an HTRF (Homogeneous Time-Resolved Fluorescene) cAMP detection kit that measures CAMP levels in the cell. Reagents and equipment used in the assay are listed below, followed by the protocol.
• 1) Cell Line: Flp-In-293-GLP1R (constructed by Pharmaron Beijing Co., Ltd) • 2) Complete Medium: DMEM+10% FBS+1×Penicillin-Streptomycin+200 μg/mL HB • 3) Assay Buffer: 1×HBSS+20 mM HEPES+0.1% BSA+500 μM IBMX
• a) Seed Flpin-293-GLP1R cells at 20,000 cells/well into 384 well assay plate (6007680-50, PE) using complete medium. • b) Prepare 4×compound working solution with assay buffer. • c) Add 5 μL 4×compound working solution into cell plate, incubate 30 min at 37° C. • d) Dilute Eu-cAMP tracer (1/50) with lysis buffer and add 10 μl/well to assay plate. • e) Dilute Ulight-anti-cAMP (1/150) with lysis buffer and add 10 μl/well to assay plate. • f) Incubate 1 h at RT. • g) Read the plate at wavelengths of 665 nm and 615 nm on Envision 2105 plate reader.
• 3.1% Activity is calculated as follow:
% Activity=100−(Signalcmpd−SignalAve_PC)/(SignalAve_VC−SignalAve_PC)×100. • 3.2 Calculate EC50 and Plot effect-dose curve of cmpds:
Y=Bottom+(Top−Bottom)/(1+10^((Log EC50−X)*Hill Slope)) • X: log of agonist concentration; Y: % Activity.

GLP1R, sequence (P43220 24-463, species assumed): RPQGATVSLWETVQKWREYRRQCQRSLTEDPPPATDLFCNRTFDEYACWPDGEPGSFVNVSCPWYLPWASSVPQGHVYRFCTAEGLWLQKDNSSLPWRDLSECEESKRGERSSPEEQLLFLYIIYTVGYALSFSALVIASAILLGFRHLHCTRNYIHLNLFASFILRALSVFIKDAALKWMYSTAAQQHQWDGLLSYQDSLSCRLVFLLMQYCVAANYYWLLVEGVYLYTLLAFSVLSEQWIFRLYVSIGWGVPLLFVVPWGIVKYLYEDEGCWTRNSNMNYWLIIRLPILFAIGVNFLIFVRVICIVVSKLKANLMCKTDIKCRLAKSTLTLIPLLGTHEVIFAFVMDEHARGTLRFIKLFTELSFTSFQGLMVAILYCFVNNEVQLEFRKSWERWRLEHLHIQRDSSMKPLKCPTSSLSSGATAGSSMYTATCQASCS

| Compound | EC50 [nM] |
| --- | --- |
| N#Cc1ccc(COc2ccnc(C34CCN(Cc5nc6ccc(C(=O)O)cc6n5C[C@@H]5CCO5)CC3C4)c2)c(F)c1 (single isomer, unassigned) [Compound 1-2-A] | > 4 |
| N#Cc1ccc(COc2ncccc2N2CC3CCC(C2)N3Cc2nc3ccc(C(=O)O)cc3n2C[C@@H]2CCO2)c(F)c1 [Compound 2-16, 2-[(3-{2-[(4-cyano-2-fluorophenyl)methoxy]pyridin-3-yl}-3,8-diazabicyclo[3.2.1]octan-8-yl)methyl]-3-[(2S)-oxetan-2-ylmethyl]-1,3-benzodiazole-5-carboxylic acid] | > 4 |
| O=C(O)c1ccc2nc(CN3C4CCC3CN(c3cccc(OCc5ccncc5F)n3)C4)n(C[C@@H]3CCO3)c2c1 [Compound 2-13, 2-[(3-{6-[(3-fluoropyridin-4-yl)methoxy]pyridin-2-yl}-3,8-diazabicyclo[3.2.1]octan-8-yl)methyl]-3-[(2S)-oxetan-2-ylmethyl]-1,3-benzodiazole-5-carboxylic acid] | > 4 |
| N#Cc1ccc(COc2ccnc(C34CCN(Cc5nc6ccc(C(=O)O)cc6n5C[C@@H]5CCO5)CC3C4)c2)c(F)c1 (single isomer, unassigned) [Compound 1-2-B] | > 4 |
| N#Cc1ccc(COc2cccc(N3C4CC3CN(Cc3nc5ccc(C(=O)O)cc5n3C[C@@H]3CCO3)C4)n2)c(F)c1 [Compound 2-2, 2-((6-(6-((4-cyano-2-fluorobenzyl)oxy)pyridin-2-yl)-3,6-diazabicyclo[3.1.1]heptan-3-yl)methyl)-1-(((S)-oxetan-2-yl)methyl)-1H-benzo[d]imidazole-6-carboxylic acid] | > 4 |
| N#Cc1ccc(COc2cccc(C34CCN(Cc5nc6ccc(C(=O)O)cc6n5C[C@@H]5CCO5)CC3C4)n2)cc1F (stereo partly drawn) [Compound 1-7, 2-((6-(6-((4-cyano-3-fluorobenzyl)oxy)pyridin-2-yl)-3-azabicyclo[4.1.0]heptan-3-yl)methyl)-1-(((S)-oxetan-2-yl)methyl)-1H-benzo[d]imidazole-6-carboxylic acid] | 0.175 |
| N#Cc1ccc(COc2cccc(C34CCN(Cc5nc6ccc(C(=O)O)cc6n5C[C@@H]5CCO5)CC3C4)c2)c(F)c1 (single isomer, unassigned) [Compound 1-9-A] | 1.01 |
| N#Cc1ccc(COc2cccc(C34CCN(Cc5nc6ccc(C(=O)O)cc6n5C[C@@H]5CCO5)CC3C4)c2)c(F)c1 (single isomer, unassigned) [Compound 1-9-B] | 1.05 |
| O=C(O)c1ccc2nc(CN3C4CC3CN(c3cccc(OCc5ccc(Cl)cc5F)n3)C4)n(C[C@@H]3CCO3)c2c1 [Compound 2-3, 2-((−3-(6-((4-chloro-2-fluorobenzyl)oxy)pyridin-2-yl)-3,6-diazabicyclo[3.1.1]heptan-6-yl)methyl)-1-(((S)-oxetan-2-yl)methyl)-1H-benzo[d]imidazole-6-carboxylic acid] | > 4 |
| N#Cc1ccc(COc2cccc(N3CC4CCC(C3)N4Cc3nc4ccc(C(=O)O)cc4n3CC3CCO3)n2)c(F)c1 (stereo not shown) [Compound 2-9, 2-((−3-(6-((4-cyano-2-fluorobenzyl)oxy)pyridin-2-yl)-3,8-diazabicyclo[3.2.1]octan-8-yl)methyl)-1-(oxetan-2-ylmethyl)-1H-benzo[d]imidazole-6-carboxylic acid] | > 4 |
| N#Cc1ccc(COc2cccc(N3CC4CCC(C3)N4Cc3nc4ccc(C(=O)O)cc4n3CC3CCOC3)n2)c(F)c1 (stereo not shown) [Compound 2-11, 2-[(3-{6-[(4-cyano-2-fluorophenyl)methoxy]pyridin-2-yl}-3,8-diazabicyclo[3.2.1]octan-8-yl)methyl]-3-(oxolan-3-ylmethyl)-1,3-benzodiazole-5-carboxylic acid] | > 4 |
| N#Cc1ccc(COc2cccc(N3CC4CCC(C3)N4Cc3nc4ccc(C(=O)O)cc4n3C[C@@H]3CCO3)n2)cc1 [Compound 2-4, 2-[(3-{6-[(4-cyanophenyl)methoxy]pyridin-2-yl}-3,8-diazabicyclo[3.2.1]octan-8-yl)methyl]-3-[(2S)-oxetan-2-ylmethyl]-1,3-benzodiazole-5-carboxylic acid] | > 4 |
| O=C(O)c1ccc2nc(CN3C4CCC3CN(c3cccc(OCc5ccc(F)cc5F)n3)C4)n(C[C@@H]3CCO3)c2c1 [Compound 2-7, 2-((−3-(6-((2,4-difluorobenzyl)oxy)pyridin-2-yl)-3,8-diazabicyclo[3.2.1]octan-8-yl)methyl)-1-(((S)-oxetan-2-yl)methyl)-1H-benzo[d]imidazole-6-carboxylic acid] | > 4 |
| N#Cc1ccc(COc2cccc(N3CC4CCC(C3)N4Cc3nc4ccc(C(=O)O)cc4n3Cc3ncco3)n2)c(F)c1 [Compound 2-12, 2-((−3-(6-((4-cyano-2-fluorobenzyl)oxy)pyridin-2-yl)-3,8-diazabicyclo[3.2.1]octan-8-yl)methyl)-1-(oxazol-2-ylmethyl)-1H-benzo[d]imidazole-6-carboxylic acid] | > 4 |
| N#Cc1ccc(COc2cccc(N3CC4CCC(C3)N4Cc3nc4ccc(C(=O)O)cc4n3C[C@@H]3CCO3)c2)c(F)c1 [Compound 2-18, 2-((−3-(3-((4-cyano-2-fluorobenzyl)oxy)phenyl)-3,8-diazabicyclo[3.2.1]octan-8-yl)methyl)-1-(((S)-oxetan-2-yl)methyl)-1H-benzo[d]imidazole-6-carboxylic acid] | 1.17 |
| O=C(O)c1ccc2nc(CN3C4CCC3CN(c3cccc(OCc5ccncc5)n3)C4)n(C[C@@H]3CCO3)c2c1 [Compound 2-5, 3-[(2S)-oxetan-2-ylmethyl]-2-({3-[6-(pyridin-4-ylmethoxy)pyridin-2-yl]-3,8-diazabicyclo[3.2.1]octan-8-yl}methyl)-1,3-benzodiazole-5-carboxylic acid] | > 4 |
| 2-((3-(6-((4-cyano-2-fluorobenzyl)oxy)pyridin-2-yl)-3,8-diazabicyclo[3.2.1]octan-8-yl)methyl)-1-((oxetan-2-yl)methyl)-1H-benzo[d]imidazole-6-carboxylic acid [Compound 2-30] | 0.375 |

Other lines, results leading:

| EC50 [nM] | Compound |
| --- | --- |
| 0.346 | O=C(O)c1ccc2nc(CN3CC4CCC(C3)N4c3cccc(OCc4ccc(Cl)cc4F)n3)n(C[C@@H]3CCO3)c2c1 [Compound 2-39, 2-[(8-{6-[(4-chloro-2-fluorophenyl)methoxy]pyridin-2-yl}-3,8-diazabicyclo[3.2.1]octan-3-yl)methyl]-3-[(2S)-oxetan-2-ylmethyl]-1,3-benzodiazole-5-carboxylic acid] |
| 3.25 | N#Cc1ccc(COc2cccc(N3C4CCC3CN(Cc3nc5ccc(C(=O)O)cc5n3C[C@@H]3CCCO3)C4)n2)c(F)c1 [Compound 2-32, 2-((−8-(6-((4-cyano-2-fluorobenzyl)oxy)pyridin-2-yl)-3,8-diazabicyclo[3.2.1]octan-3-yl)methyl)-1-(((S)-tetrahydrofuran-2-yl)methyl)-1H-benzo[d]imidazole-6-carboxylic acid] |
| > 4 | N#Cc1ccc(COc2cccc(N3CC4CN(Cc5nc6ccc(C(=O)O)cc6n5C[C@@H]5CCCO5)CC4C3)n2)c(F)c1 (stereo partly drawn) [Compound 2-23, 2-[(5-{6-[(4-cyano-2-fluorophenyl)methoxy]pyridin-2-yl}-hexahydropyrrolo[3,4-c]pyrrol-2-yl)methyl]-3-[(2S)-oxolan-2-ylmethyl]-1,3-benzodiazole-5-carboxylic acid] |
| 0.929 | Cc1ccc(COc2cccc(N3C4CCC3CN(Cc3nc5ccc(C(=O)O)cc5n3C[C@@H]3CCO3)C4)n2)c(F)c1 [Compound 2-37, 2-((−8-(6-((2-fluoro-4-methylbenzyl)oxy)pyridin-2-yl)-3,8-diazabicyclo[3.2.1]octan-3-yl)methyl)-1-(((S)-oxetan-2-yl)methyl)-1H-benzo[d]imidazole-6-carboxylic acid] |
| 1.5 | N#Cc1ccc(COc2cccc(N3C4CCC3CN(Cc3nc5ccc(C(=O)O)cc5n3Cc3ncco3)C4)n2)c(F)c1 [Compound 2-31, 2-[(8-{6-[(4-cyano-2-fluorophenyl)methoxy]pyridin-2-yl}-3,8-diazabicyclo[3.2.1]octan-3-yl)methyl]-3-(1,3-oxazol-2-ylmethyl)-1,3-benzodiazole-5-carboxylic acid] |
| > 4 | O=C(O)c1ccc2nc(CN3CC4CN(c5cccc(OCc6ccc(F)cc6F)n5)CC4C3)n(C[C@@H]3CCO3)c2c1 (stereo partly drawn) [Compound 2-28, 2-[(5-{6-[(2,4-difluorophenyl)methoxy]pyridin-2-yl}-hexahydropyrrolo[3,4-c]pyrrol-2-yl)methyl]-3-[(2S)-oxetan-2-ylmethyl]-1,3-benzodiazole-5-carboxylic acid] |
| > 4 | N#Cc1ccc(COc2cccc(N3CC4CN(Cc5nc6ccc(C(=O)O)cc6n5Cc5ncco5)CC4C3)n2)c(F)c1 (stereo not shown) [Compound 2-26, 2-[(5-{6-[(4-cyano-2-fluorophenyl)methoxy]pyridin-2-yl}-hexahydropyrrolo[3,4-c]pyrrol-2-yl)methyl]-3-(1,3-oxazol-2-ylmethyl)-1,3-benzodiazole-5-carboxylic acid] |
| > 4 | O=C(O)c1ccc2nc(CN3CC4CN(c5cccc(OCc6ccc(Cl)cc6F)n5)CC4C3)n(C[C@@H]3CCO3)c2c1 (stereo partly drawn) [Compound 2-27, 2-((5-(6-((4-chloro-2-fluorobenzyl)oxy)pyridin-2-yl)hexahydropyrrolo[3,4-c]pyrrol-2 (1H)-yl)methyl)-1-(((S)-oxetan-2-yl)methyl)-1H-benzo[d]imidazole-6-carboxylic acid] |
